Laboratory results: US7148250B2, “Indoles as NAALADase inhibitors” (Guilford Pharmaceuticals Inc., priority 2001, dated 2006)

Key:
[1] = tested on: BB/W rats; experiment: Retinal disorders in diabetic BB/W rats (BM thickness, E/P ratio); format: in vivo, rat; settings: for BM THICKNESS ± SD (n = 3) / E/P RATIO (n = 8–10): diabetic BB/W rats
Protocol: Four (4) groups of rats received daily insulin injections to maintain their glucose levels at about 350 mg/dl. Starting at the onset of hyperglycemia, NAALADase inhibitor 2-(3-sulfanylpropyl)-pentanedioic acid was administered daily for 6 months to one group of BB/W rats at a dose of 10 mg/kg and to a second group of BB/W rats at a dose of 30 mg/kg. A third group of BB/W rats and a fourth group of non-diabetic rats received daily vehicle treatment (50 mM Hepes buffered saline).
After six (6) months of NAALADase inhibitor or vehicle treatment, the rats were sacrificed and their eyes were removed. From each rat, one eye was processed for elastase digest while the other eye was processed for transmission electron microscopy (TEM) and basement membrane (BM) thickness.
Retinal digests were prepared using elastase on retinas as described in Layer, N., Invest Ophthalmol Vis Sci (1993) 34:2097. Eyes were removed from recently killed BB/W rats (n=25) and age-matched […] controls (n=10). The retinas (n=35) were fixed at room temperature by immersing the whole eye (slit at limbus) in 4% (w/v) paraformaldehyde in 50 mmol/L Na—K phosphate buffer with 8% sucrose. The fixed retinas were rinsed in deionized water and were incubated for 3 minutes in a 37° C. agitating water bath in 40 units/mL elastase in Na—K phosphate buffer with 150 mmol/L NaCl and 5 mmol/L ethylenediamine tetraacetic acid (EDTA), pH 6.5. The tissues were washed overnight in 100 mmol/L Tris-HCL (pH 8.5) and then transferred to deionized water for removal of the loosened vitreous and digested neural elements by gentle agitation using the sides of closed forceps and the sides and ends of very fine brushes. After all loose tissues were removed, the retinas were incubated once more in fresh enzyme for 3 minutes and then subjected to a second overnight wash at room temperature in Tns-HCl buffer. On the third day, the retinas were again transferred to deionized water for additional removal of digested neural elements. The vascular network that was completely free of nonvascular elements was mounted flat by flotation in Ca^2+ and Mg^2+ free Dulbecco's PBS on siliconized slides (#S1308, Oncor, Gaithersburg, Md.). After air drying in a dust free environment, the mounts of the retinal microvasculature were stained using periodic acid Schiff reaction and hematoxylin counterstaining, as described in Luna, L., ed. Manual of Histologic Staining Methods of the Armed Forces Institute of Pathology (1968) McGraw-Hill, New York, N.Y. The preparations were then examined by light microscopy and photographed.
The stained and intact retinal whole mounts were coded and subsequent counting was done masked, as described in Cuthbertson, R., Invest Ophthalmol Vis Sci. (1986) 27:1659–1664).
Ten fields at ×100 magnification were counted for endothelial and pericyte cells using previously described morphologic criteria (see Kuwabara, T., Arch Ophthalmol. (1960) 64:904–911). In every sample, at least 200 cells were counted from the mid zone of the retina. Mean values for endothelial cell/pericyte (E/P) ratios were initially calculated in 3 retinas from each of the four (4) groups of rats.
Each eye was fixed in 4% glutaraldehyde and dissected free of sclera and choroids, then trimmed and postfixed in 1% osmium tetroxide. After dehydration and embedding, thin sections were stained with uranyl acetate and lead citrate. Initially, BM thickness of retinal capillaries from 3 non-diabetic rats receiving vehicle, 3 diabetic animals receiving 10 mg/kg 2-(3-sulfanylpropyl)-pentanedioic acid, and 3 diabetic rats receiving 30 mg/kg 2-(3-sulfanylpropyl)-pentanedioic acid were compared with 3 diabetic rats receiving a vehicle. At least 10 capillaries per eye from the inner nuclear and plexiform layers were photographed at a magnification of 10,000×. Exact magnification was determined for each set of negatives with a 28,800 line/inch calibration grid. Negatives were enlarged 3×. […]

[2] = tested on: Brown Norway rats with unilateral optic nerve transection; experiment: Optic nerve transection, optic nerve fiber counting; format: in vivo, Rattus norvegicus; settings: for FIBER NUMBER ± SEM / PERCENT DIFFERENCE ± SEM in fiber number between transected and normal eye: 10 mg/kg i.p. daily
Protocol: All experiments complied with the Association for Research in Vision and Ophthalmology Statement for the Use of Animals in Ophthalmic and Vision Research. 82 male Brown Norway rats (Rattus norvegicus), each weighing approximately 250 gm, were treated using procedures approved by the Animal Care Committee of the Johns Hopkins University School of Medicine. The rats were housed with a 12 hour light/12 hour dark cycle and fed ad libitum.
OPTIC NERVE TRANSECTION: The optic nerve was transected unilaterally in 26 rats under intraperitoneal pentobarbital anesthesia. The conjunctiva was opened with scissors and the optic nerve exposed by traction on extraocular muscles. The transection was performed with microscissors 5 mm posterior to the globe, with specific attention to avoidance of injury to major ocular blood vessels. Immediately after transection, the retina was examined ophthalmoscopically to assure that the retinal arterial blood supply was not disrupted. The conjunctiva was closed with absorbable suture and the eye dressed with antibiotic ointment. Beginning on the day of transection, the rats were treated daily with intraperitoneal injections of either a vehicle (9 rats with 50 mM HEPES-buffered saline) or a NAALADase inhibitor (8 rats with 10 mg/kg of Compound A and 9 rats with 10 mg/kg of Compound B). 5 saline treated rats, 3 Compound A treated rats and 4 Compound B treated rats were sacrificed at 2 weeks, and the remaining rats at 4 weeks, after transection.
OPTIC NERVE COUNTING: The rats were sacrificed by exsanguination under deep pentobarbital anesthesia. They were perfused through the heart with 2% paraformaldehyde/2% glutaraldehyde in 0.1 M phosphate buffer, pH 7.2, and the eyes with attached optic nerves were removed. A cross-section of the optic nerve from both experimental (glaucoma or transection) and control eyes was removed 1.5 mm posterior to the globe, 1 mm in thickness, and post-fixed in 2% osmium tetroxide in buffer. These were processed into epoxy resin, sectioned at 1 micron and stained with toluidine blue.
The area of the optic nerve cross-section was measured by outlining its outer border at 10× magnification on an image analysis system (Universal Imaging Corp., Westchester, Pa.) with Synsys digital camera and Metamorph software. Three area measurements were taken and the mean value was determined. To measure the density and fiber diameter distributions, images were captured with a 100× phase contrast objective from 10 different areas of each nerve. These were edited to eliminate non-neural objects and the size of each axon internal to the myelin sheath (its minimum diameter) and the density of axons/square mm were calculated for each image and nerve. The mean density was multiplied by total nerve area to yield fiber number for each nerve. The total fiber number in glaucoma or transection nerves was compared to the normal, fellow eye of each rat to yield a percent loss value. The number of axons counted among the 10 images was an approximately 20% sample of the 80–90,000 axons in normal rat nerves. The person measuring axon number was masked to the protocol conducted on the nerves.

[3] = 10 mg/kg daily for 6 months, 10 mg/kg
[4] = 10 mg/kg daily for 6 months, listed as NAALADASE INHIBITOR, 10 mg/kg
[5] = 30 mg/kg daily for 6 months, 30 mg/kg
[6] = 30 mg/kg daily for 6 months, listed as NAAALADASE INHIBITOR, 30 mg/kg
[7] = high dose (30 mg/kg), six months
[8] = low dose (10 mg/kg), six months
[9] = 2 weeks survival after transection
[10] = 4 weeks survival after transection

O=C(O)CCC(CCCS)C(=O)O (centres unmarked) [Compound B, 2-(3-sulfanylpropyl)-pentanedioic acid]
BM THICKNESS ± SD (n = 3) [1, 3]: 82.3±4.07 nm | E/P RATIO (n = 8–10) [1, 3]: 2.4±0.5 | BM THICKNESS ± SD (n = 3) [1, 4]: 82.3 ± 4.07 nm | E/P RATIO (n = 8–10) [1, 4]: 2.4 ± 0.5 | BM THICKNESS ± SD (n = 3) [1, 5]: 71.7±4.07 nm | E/P RATIO (n = 8–10) [1, 5]: 1.9±0.4 | BM THICKNESS ± SD (n = 3) [1, 6]: 71.7 ± 4.07 nm | E/P RATIO (n = 8–10) [1, 6]: 1.9 ± 0.4 | reduction in BM thickness versus diabetic vehicle [1, 7]: 29.0% | reduction of E/P ratios versus diabetic vehicle [1, 7]: 37% | decrease in BM thickness versus diabetic vehicle [1, 8]: 18.5% | reduction of E/P ratios versus diabetic vehicle [1, 8]: 20% | remaining axons relative to saline-treated rats ([2]; 2 weeks after transection): twice | FIBER NUMBER ± SEM [2, 9]: 19,550 ± 5,091 | PERCENT DIFFERENCE ± SEM in fiber number between transected and normal eye [2, 9]: 75.3 ± 6.6% | FIBER NUMBER ± SEM [2, 10]: 5,162 ± 2,509 | PERCENT DIFFERENCE ± SEM in fiber number between transected and normal eye [2, 10]: 93.4 ± 3.1%
